Literature values as cited in patent publication US20100063004A1, “TOPICAL PHARMACEUTICAL COMPOSITION” (priority 2006, published 2010).

Experiments:
[1] = system: enlargement of the prostate gland; details: taken orally
[2] = system: lipid enveloped viruses such as herpes
[3] = system: herpes labialis (HSV-1); details: 10% n-docosanol suspended in an aqueous system containing a non-ionic surfactant and a carrier; humans with herpes labialis (HSV-1)

CCCCCCCCCCCCCCCCCCCCCCO [n-docosanol]
solubility in water: insoluble | therapeutic effect in enlargement of the prostate gland [1]: therapeutically effective | activity in cell cultures against lipid enveloped viruses [2]: broad activity | mean healing time of lesions [3]: shortened
